Measured values taken from PubChem BioAssay (NCI).
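Values below derive from 48-hour exposures of cells grown in 96-well plates, with endpoints linearly interpolated between the two concentrations bracketing the appropriate inhibition level. TGI: concentration producing complete growth inhibition.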

Experiments:
Assay in all cases: growth of human tumour cells (NCI), 48 h
[1] = test system: SNB-19 CNS
[2] = test system: MDA-MB-435
[3] = test system: OVCAR-3 ovarian
[4] = test system: MCF7 breast
[5] = test system: UO-31 renal
[6] = test system: EKVX NSCLC
[7] = test system: SW-620 colon
[8] = test system: A549 NSCLC
[9] = test system: MALME-3M melanoma
[10] = test system: SK-MEL-5 melanoma

SMILES	TGI [1] [µM]	TGI [2] [µM]	TGI [3] [µM]	TGI [4] [µM]	TGI [5] [µM]	TGI [6] [µM]	TGI [7] [µM]	TGI [8] [µM]	TGI [9] [µM]	TGI [10] [µM]
Cn1c2c3c(F)c(F)ccc3nc-2cc2ccccc21	18.2	15.7	13.6	30	7.52	26.8	12.4	15.4	14.1	12.8
O=C(CN(c1ccc(S(=O)(=O)O)cc1)c1ccc(S(=O)(=O)O)cc1)Nn1cnc2ccc(S(=O)(=O)N(c3ccc(S(=O)(=O)O)cc3)c3ccc(S(=O)(=O)O)cc3)cc2c1=O	> 100	> 100	> 100	> 100	> 100	> 100	> 100	> 100	> 100	> 100
Oc1ccc(-c2cn3cc(C(F)(F)F)ccc3n2)cc1	> 100	> 100	> 100	> 100	> 100	> 100	> 100	> 100	> 100	> 100
CCC(=O)NCCc1c2c3c(ccnc3c3ncsc13)-c1ccccc1N2	> 100	> 64.5	> 66.5	> 100	> 100	> 100	> 100	> 53.1	> 100	34.2
CC1OC(O[C@H]2CC[C@]3(C=O)[C@H]4CC[C@]5(C)[C@H](C6=CC(=O)OC6)CC[C@]5(O)[C@@H]4C=C[C@]3(O)C2)CC(O)C1O (stereo not given in full)	3.25	0.701	0.583	2.71	0.546	0.611	0.902	0.378	0.361	0.359
CCOC(=O)NC(=S)c1ccc(O)c2ccccc12	> 100	> 100	> 100	> 100	> 100	> 100	> 100	> 100	> 100	> 100
CC(C)CN(CC#N)CC(C)C	> 100	> 100	> 100	> 100	> 100	> 100	> 100	> 100	> 100	> 100
O=[N+]([O-])c1sc2ccc(Cl)cc2c1Nc1ccc(Cl)cc1	> 100	> 100	> 100	> 100	> 100	> 100	> 100	> 100	> 100	> 100
O=[As](O)(O)c1ccc2nc3cc([As](=O)(O)O)ccc3nc2c1	> 100	> 100	> 100	> 100	> 100	> 100	> 100	> 100	> 100	> 100
O=c1[nH]c(=O)n(C/C=C/CBr)nc1Br	28.1	27.2	23.9	22.2	32.5	28.8	29.5	30.8	27.5	25.9
O=C1C(Cl)C(c2cc3cc(Br)ccc3nc2Cl)N1c1c(Cl)cccc1Cl (stereo not given)	> 25	> 25	> 25	22.6	4.5	22.2	> 25	> 25	> 25	> 25
Cc1cc(C)n(CN(Cn2nc(C)cc2C)c2ccccc2)n1	> 100	29.1	66.6	68.1	78.5	72.8	69.8	> 100	52.7	62.4
c1ccc(C2=Nc3cccc4cccc(c34)N2)cc1	> 100	> 85.8	45.2	> 69.4	> 56.1	> 100	39.3	> 100	> 77.6	> 100
N#Cc1c(N)c(C#N)c2c(c1-c1ccc(Cl)cc1)COc1ccccc1-2	30.6	99.4	30.6	> 100	13	28.5	> 100	33.2	58.1	71.6
Oc1cc(CN2COc3ccccc32)c(O)cc1CNC1CCCCC1	> 100	60.1	> 100	42.7	> 100	36.3	> 100	> 100	38.2	35.2
CC(NC(NC(C)C12CC3CC(CC(C3)C1)C2)=C(C(Cl)=C(Cl)Cl)[N+](=O)[O-])C12CC3CC(CC(C3)C1)C2 (stereo not given)	> 100	> 100	64.8	> 58.7	> 100	> 89.4	62.1	25.7	> 95.6	36.3
CCN(CC)CCNc1ccc(C)c2sc3ccccc3c(=O)c12	8.85	4.49	16.8	5.8	3	19.3	4.35	7.13	9.46	5.4
